This note sets out measurements from patent publication US5110904A (Abbott Laboratories, priority 1990, dated 1992).

Each structure is given as a SMILES string. Non-standard residues stand in square brackets, D forms with d. Residues, ends and D or L forms follow the SMILES beside them. *: point of attachment. dNMe1Nal = CN[C@H](Cc1cccc2ccccc12)C(=O)O; dPhe(4-Cl) = N[C@H](Cc1ccc(Cl)cc1)C(=O)O; 1Nal = N[C@@H](Cc1cccc2ccccc12)C(=O)O; d1Nal = N[C@H](Cc1cccc2ccccc12)C(=O)O; Lys(iPr) = CC(C)NCCCC[C@H](N)C(=O)O; NMeY = CN[C@@H](Cc1ccc(O)cc1)C(=O)O; dBta = N[C@H](Cc1csc2ccccc12)C(=O)O; NMeF = CN[C@@H](Cc1ccccc1)C(=O)O; d3Pal = N[C@H](Cc1cccnc1)C(=O)O; Cha = N[C@@H](CC1CCCCC1)C(=O)O; d2Thi = N[C@H](Cc1cccs1)C(=O)O; NMeL = CN[C@@H](CC(C)C)C(=O)O; pGlu = O=C1CC[C@@H](C(=O)O)N1; Nicotinoyl = O=C(c1cccnc1)*; NMeS = CN[C@@H](CO)C(=O)O; Sar = CNCC(=O)O; For = O=C*

For the assay, the target named is T1, LHRH receptors (Rattus norvegicus, UniProt P30969).
T1 sequence (P30969 1-327): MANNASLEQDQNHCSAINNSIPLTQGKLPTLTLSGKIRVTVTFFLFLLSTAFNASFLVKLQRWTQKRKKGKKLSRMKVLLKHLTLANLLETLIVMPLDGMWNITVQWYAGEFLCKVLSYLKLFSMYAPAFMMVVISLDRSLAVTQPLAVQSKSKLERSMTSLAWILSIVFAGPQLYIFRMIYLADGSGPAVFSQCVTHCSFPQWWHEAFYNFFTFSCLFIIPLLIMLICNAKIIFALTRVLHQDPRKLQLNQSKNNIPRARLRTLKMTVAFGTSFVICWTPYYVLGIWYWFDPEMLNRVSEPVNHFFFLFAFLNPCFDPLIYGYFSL
Kind of assay: Radioligand receptor binding assay, rat pituitary membranes. The following applies: radioiodinated [D-Leu6-des Gly10]-LHRH ethyl amide 50 pM, 2 hours at 4° C., read-out: Receptor Binding pkI (converted). Here is the method:
The radioligand (50 pM), receptors, and compounds to be tested are coincubated for 2 hours at 4° C. Bound ligand is separated from free ligand via centrifugation and aspiration.
Regarding `CCNC(=O)[C@@H]1CCCN1C(=O)[C@H](CCCN=C(N)N)NC(=O)[C@H](CC(C)C)NC(=O)[C@@H](CC(C)C)NC(=O)[C@H](Cc1ccc(O)cc1)NC(=O)[C@H](CO)N(C)C(=O)[C@H](Cc1c[nH]c2ccccc12)NC(=O)[C@H](Cc1c[nH]cn1)NC(=O)[C@@H]1CCC(=O)N1` [Ex. 1, (pyro)Glu-His-Trp-N-Me-Ser-Tyr-D-Leu-Leu-Arg-Pro-NHEt] ([pGlu]HW[NMeS]Y[dL]LRP-NHEt), the Ki is 1.17 nM. As for `CCNC(=O)[C@@H]1CCCN1C(=O)[C@H](CCCN=C(N)N)NC(=O)[C@H](CC(C)C)NC(=O)[C@@H](Cc1c[nH]c2ccccc12)NC(=O)[C@H](Cc1ccc(O)cc1)NC(=O)[C@H](CO)NC(=O)[C@H](Cc1c[nH]c2ccccc12)NC(=O)[C@H](Cc1ccccc1)N(C)C(=O)[C@@H]1CCC(=O)N1` [Ex. 19, (pyro)Glu-N-Me-Phe-Trp-Ser-Tyr-D-Trp-Leu-Arg-ProNHEt] ([pGlu][NMeF]WSY[dW]LRP-NHEt), the Ki is 0.038 nM.

In the case of `CCNC(=O)[C@@H]1CCCN1C(=O)[C@H](CCCN=C(N)N)N(C)C(=O)[C@H](CC(C)C)NC(=O)[C@@H](Cc1c[nH]c2ccccc12)NC(=O)[C@H](Cc1ccc(O)cc1)NC(=O)[C@H](CO)NC(=O)[C@H](Cc1c[nH]c2ccccc12)NC(=O)[C@H](Cc1cnc[nH]1)NC(=O)[C@@H]1CCC(=O)N1` [Ex. 23, (pyro)Glu-His-Trp-Ser-Tyr-D-Trp-Leu-N-Me-Arg-ProNHEt], the Ki was 0.0562 nM.

For `CC(=O)N[C@H](Cc1ccc(Cl)cc1)C(=O)N[C@H](Cc1ccc(Cl)cc1)C(=O)N[C@H](Cc1cccs1)C(=O)N[C@@H](CO)C(=O)N(C)[C@@H](Cc1ccc(O)cc1)C(=O)N[C@H](CCCCN)C(=O)N[C@@H](CC(C)C)C(=O)N[C@@H](CCCNC(=N)N)C(=O)N1CCC[C@H]1C(=O)N[C@H](C)C(N)=O` [Ex. 39, N-Ac-D-4-Cl-Phe-D-4-Cl-Phe-D-2-Thia-Ser-N-Me-Tyr-D-Lys-Leu-Arg-Pro-D-AlaNH2] (Ac-[dPhe(4-Cl)][dPhe(4-Cl)][d2Thi]S[NMeY][dK]LRP[dA]-NH2), the Ki was 0.0355 nM.

`CC(=O)NCC(=O)N[C@H](Cc1ccc(Cl)cc1)C(=O)N[C@H](Cc1cccnc1)C(=O)N[C@@H](CO)C(=O)N(C)[C@@H](Cc1ccc(O)cc1)C(=O)N[C@H](CCCCNC(=O)c1cccnc1)C(=O)N[C@@H](CC(C)C)C(=O)N[C@@H](CCCCNC(C)C)C(=O)N1CCC[C@H]1C(=O)N[C@H](C)C(N)=O` [Ex. 42, N-Ac-Gly-D-4-Cl-Phe-D-3-Pal-Ser-N-Me-Tyr-D-Lys-(N-epsilon-nicotinyl)-Leu-Lys(N-epsilon-isopropyl)-Pro-D-AlaNH2] (Ac-G[dPhe(4-Cl)][d3Pal]S[NMeY][dK](Nicotinoyl)L[Lys(iPr)]P[dA]-NH2): the Ki is 0.603 nM. For `CC(=O)N[C@H](Cc1ccc(Cl)cc1)C(=O)N[C@H](Cc1ccc(Cl)cc1)C(=O)N[C@H](Cc1cccs1)C(=O)N[C@@H](CO)C(=O)N(C)[C@@H](Cc1ccc(O)cc1)C(=O)N[C@H](CCCCN)C(=O)N(C)[C@@H](CC(C)C)C(=O)N[C@@H](CCCNC(=N)N)C(=O)N1CCC[C@H]1C(=O)N[C@H](C)C(N)=O` [Ex. 45, N-Ac-D-4-Cl-Phe-D-4-Cl-Phe-D-2-Thia-Ser-N-Me-Tyr-D-Lys-N-Me-Leu-Arg-Pro-D-AlaNH4] (Ac-[dPhe(4-Cl)][dPhe(4-Cl)][d2Thi]S[NMeY][dK][NMeL]RP[dA]-NH2), the Ki was 0.0138 nM. With `CC(=O)N[C@H](Cc1ccc(Cl)cc1)C(=O)N[C@H](Cc1ccc(Cl)cc1)C(=O)N[C@H](Cc1cccc2ccccc12)C(=O)N[C@@H](CO)C(=O)N(C)[C@@H](Cc1ccc(O)cc1)C(=O)N[C@H](CCCCN)C(=O)N[C@@H](CC1CCCCC1)C(=O)N[C@@H](CCCNC(=N)N)C(=O)N1CCC[C@H]1C(=O)N[C@H](C)C(N)=O` [Ex. 47, N-Ac-D-4-Cl-Phe-D-4-Cl-Phe-D-1-Nal-Ser-N-Me-Tyr-D-Lys-Cha-Arg-Pro-D-AlaNH2] (Ac-[dPhe(4-Cl)][dPhe(4-Cl)][d1Nal]S[NMeY][dK][Cha]RP[dA]-NH2), the Ki is 0.038 nM. Turning to `CC(=O)N(C)CC(=O)N[C@H](Cc1ccc(Cl)cc1)C(=O)N[C@H](Cc1cccc2ccccc12)C(=O)N[C@@H](CO)C(=O)N(C)[C@@H](Cc1ccc(O)cc1)C(=O)N[C@H](CCCCN)C(=O)N[C@@H](CC(C)C)C(=O)N[C@@H](CCCNC(=N)N)C(=O)N1CCC[C@H]1C(=O)N[C@H](C)C(N)=O` [Ex. 48, N-Ac-Sar-D-4-Cl-Phe-D-1-Nal-Ser-N-Me-Tyr-D-Lys-Leu-Arg-Pro-D-AlaNH2] (Ac-[Sar][dPhe(4-Cl)][d1Nal]S[NMeY][dK]LRP[dA]-NH2), the Ki was 0.01 nM. In the case of `CC(=O)N(C)CC(=O)N[C@H](Cc1ccc(Cl)cc1)C(=O)N[C@H](Cc1cccs1)C(=O)N[C@@H](CO)C(=O)N(C)[C@@H](Cc1ccc(O)cc1)C(=O)N[C@H](CCCCN)C(=O)N[C@@H](CC(C)C)C(=O)N[C@@H](CCCNC(=N)N)C(=O)N1CCC[C@H]1C(=O)N[C@H](C)C(N)=O` [Ex. 49, N-Ac-Sar-D-4-Cl-Phe-D-2-Thia-Ser-N-Me-Tyr-D-Lys-Leu-Arg-Pro-D-AlaNH2] (Ac-[Sar][dPhe(4-Cl)][d2Thi]S[NMeY][dK]LRP[dA]-NH2), the Ki was 0.0316 nM. Take `CC(=O)N(C)CC(=O)N[C@H](Cc1ccc(Cl)cc1)C(=O)N[C@H](Cc1cccc2ccccc12)C(=O)N[C@@H](CO)C(=O)N(C)[C@@H](Cc1ccc(O)cc1)C(=O)N[C@H](Cc1cccnc1)C(=O)N[C@@H](CC(C)C)C(=O)N[C@@H](CCCNC(=N)N)C(=O)N1CCC[C@H]1C(=O)N[C@H](C)C(N)=O` [Ex. 50, N-Ac-Sar-D-4-Cl-Phe-D-1-Nal-Ser-N-Me-Tyr-D-3-Pal-Leu-Arg-Pro-D-AlaNH4] (Ac-[Sar][dPhe(4-Cl)][d1Nal]S[NMeY][d3Pal]LRP[dA]-NH2): the Ki was 0.0138 nM. In the case of `CC(=O)N(C)CC(=O)N[C@H](Cc1ccc(Cl)cc1)C(=O)N[C@H](Cc1cccc2ccccc12)C(=O)N[C@@H](CO)C(=O)N(C)[C@@H](Cc1ccc(O)cc1)C(=O)N[C@H](CCCCNC(=O)c1cccnc1)C(=O)N[C@@H](CC(C)C)C(=O)N[C@@H](CCCNC(=N)N)C(=O)N1CCC[C@H]1C(=O)N[C@H](C)C(N)=O` [Ex. 51, N-Ac-Sar-D-4-Cl-Phe-D-1-Nal-Ser-N-Me-Tyr-D-Tys(N-epsilon-nicotinyl)-Leu-Arg-Pro-D-AlaNH2] (Ac-[Sar][dPhe(4-Cl)][d1Nal]S[NMeY][dK](Nicotinoyl)LRP[dA]-NH2), the Ki is 0.0269 nM. As to `CC(=O)N(C)CC(=O)N[C@H](Cc1ccc(Cl)cc1)C(=O)N[C@@H](Cc1cccc2ccccc12)C(=O)N[C@@H](CO)C(=O)N(C)[C@@H](Cc1ccc(O)cc1)C(=O)N[C@H](CCCCN)C(=O)N[C@@H](CC(C)C)C(=O)N[C@@H](CCCNC(=N)N)C(=O)N1CCC[C@H]1C(=O)N[C@H](C)C(N)=O` [Ex. 52, N-Ac-Sar-D-4-Cl-Phe-1-Nal-Ser-N-Me-Tyr-D-Lys-Leu-Arg-Pro-D-AlaNH4] (Ac-[Sar][dPhe(4-Cl)][1Nal]S[NMeY][dK]LRP[dA]-NH2), the Ki was 0.017 nM. In the case of `CC(=O)NCC(=O)N[C@H](Cc1ccc(Cl)cc1)C(=O)N[C@H](Cc1cccc2ccccc12)C(=O)N[C@@H](CO)C(=O)N(C)[C@@H](Cc1ccc(O)cc1)C(=O)N[C@H](CCCCN)C(=O)N[C@@H](CC(C)C)C(=O)N[C@@H](CCCNC(=N)N)C(=O)N1CCC[C@H]1C(=O)N[C@H](C)C(N)=O` [Ex. 53, N-Ac-Gly-D-4-Cl-Phe-D-1-Nal-Ser-N-Me-Tyr-D-Lys-Leu-Arg-Pro-D-AlaNH2] (Ac-G[dPhe(4-Cl)][d1Nal]S[NMeY][dK]LRP[dA]-NH2), the Ki was 0.0132 nM. Regarding `CC(=O)N[C@H](Cc1ccc(Cl)cc1)C(=O)N[C@H](Cc1ccc(Cl)cc1)C(=O)N[C@H](Cc1csc2ccccc12)C(=O)N[C@@H](CO)C(=O)N(C)[C@@H](Cc1ccc(O)cc1)C(=O)N[C@H](CCCCN)C(=O)N[C@@H](CC(C)C)C(=O)N[C@@H](CCCN=C(N)N)C(=O)N1CCC[C@H]1C(=O)N[C@H](C)C(N)=O` [Ex. 54, N-Ac-D-4-Cl-Phe-D-4-Cl-Phe-D-3-Bal-Ser-N-Me-Tyr-D-Lys-Leu-Arg-Pro-D-AlaNH2] (Ac-[dPhe(4-Cl)][dPhe(4-Cl)][dBta]S[NMeY][dK]LRP[dA]-NH2), the Ki is 0.0339 nM. For `CC(=O)N[C@H](Cc1ccc(Cl)cc1)C(=O)N[C@H](Cc1ccc(Cl)cc1)C(=O)N[C@H](Cc1cn(C=O)c2ccccc12)C(=O)N[C@@H](CO)C(=O)N(C)[C@@H](Cc1ccc(O)cc1)C(=O)N[C@H](CCCCN)C(=O)N[C@@H](CC(C)C)C(=O)N[C@@H](CCCNC(=N)N)C(=O)N1CCC[C@H]1C(=O)N[C@H](C)C(N)=O` [Ex. 55, N-Ac-D-4-Cl-Phe-D-4-Cl-Phe-D-Trp(formyl)-Ser-N-Me-Tyr-D-Lys-Leu-Arg-Pro-D-AlaNH2] (Ac-[dPhe(4-Cl)][dPhe(4-Cl)][dW](For)S[NMeY][dK]LRP[dA]-NH2), the Ki is 0.0219 nM. The result for `CC(=O)N[C@H](Cc1ccc(Cl)cc1)C(=O)N[C@H](Cc1ccc(Cl)cc1)C(=O)N(C)[C@H](Cc1cccc2ccccc12)C(=O)N[C@@H](CO)C(=O)N(C)[C@@H](Cc1ccc(O)cc1)C(=O)N[C@H](CCCCN)C(=O)N[C@@H](CC(C)C)C(=O)N[C@@H](CCCNC(=N)N)C(=O)N1CCC[C@H]1C(=O)N[C@H](C)C(N)=O` [Ex. 56, N-Ac-D-4-Cl-Phe-D-4-Cl-Phe-N-Me-D-1-Nal-Ser-N-Me-Tyr-D-Lys-Leu-Arg-Pro-D-AlaNH2] (Ac-[dPhe(4-Cl)][dPhe(4-Cl)][dNMe1Nal]S[NMeY][dK]LRP[dA]-NH2) reads 0.676 nM.
